Source: US9387202B2, “Pyridone amides and analogs exhibiting anti-cancer and anti-proliferative activities” (priority 2011, dated 2016)

Legend:
[1] = target: T1, c-MET kinase (Seq. ID No. 2), cMET WT (Homo sapiens, UniProt P08581); experiment: c-MET kinase assay (WT MET biochemical assay); settings: for Fold potency decrease versus Example 1, cMET WT: relative to Example 1 = 1; for Fold potency decrease versus Example 2, cMET WT: relative to Example 2 = 1
T1 construct: c-MET (c-MET residues: 956-1390, from Invitrogen, catalogue #PV3143, 6 nM); purchased Invitrogen PV3143
T1 sequence (P08581 with tags, fused parts or gaps): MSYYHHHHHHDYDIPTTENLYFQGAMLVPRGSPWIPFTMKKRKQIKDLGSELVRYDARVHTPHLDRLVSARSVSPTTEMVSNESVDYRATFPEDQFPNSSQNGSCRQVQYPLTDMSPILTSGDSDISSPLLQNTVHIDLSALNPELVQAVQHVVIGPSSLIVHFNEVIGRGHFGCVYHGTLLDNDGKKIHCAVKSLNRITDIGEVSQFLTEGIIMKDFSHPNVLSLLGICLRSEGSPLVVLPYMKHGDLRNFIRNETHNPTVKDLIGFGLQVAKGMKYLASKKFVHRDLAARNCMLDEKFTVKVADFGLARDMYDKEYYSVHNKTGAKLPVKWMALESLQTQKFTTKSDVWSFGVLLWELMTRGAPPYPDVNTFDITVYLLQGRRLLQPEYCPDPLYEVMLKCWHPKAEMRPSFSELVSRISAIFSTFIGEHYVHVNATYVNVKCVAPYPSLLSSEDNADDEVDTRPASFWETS
Description: Activity of c-MET kinase (Seq. ID No. 2) was determined by following the production of ADP from the kinase reaction through coupling with the pyruvate kinase/lactate dehydrogenase system (e.g., Schindler et al. Science 2000, 289, pp. 1938-1942). In this assay, the oxidation of NADH (thus the decrease at A340 nm) was continuously monitored spectrophotometrically. The reaction mixture (100 μl) contained c-MET (c-MET residues: 956-1390, from Invitrogen, catalogue #PV3143, 6 nM), polyE4Y (1 mg/mL), MgCl2 (10 mM), pyruvate kinase (4 units), lactate dehydrogenase (0.7 units), phosphoenol pyruvate (1 mM), and NADH (0.28 mM) in 90 mM Tris buffer containing 0.25 mM DTT, 0.2% octyl-glucoside and 1% DMSO, pH 7.5. Test compounds were incubated with c-MET (Seq. ID No. 2) and other reaction reagents at 22° C. for 0.5 h before ATP (100 μM) was added to start the reaction. The absorption at 340 nm was monitored continuously for 2 hours at 30° C. on Polarstar Optima plate reader (BMG). The reaction rate was calculated using the 1.0 to 2.0 h time frame. Percent inhibition was obtained by comparison of reaction rate with that of a control (i.e., with no test compound). IC50 values were calculated from a series of percent inhibition values determined at a range of inhibitor concentrations using software routines as implemented in the GraphPad Prism software package.

MET (D1246H) Mutant = MET (D1246H) Mutant (Homo sapiens, UniProt P08581, D1228H); experiment: Mutant MET kinase biochemical assay, D1246H; settings: for Fold potency decrease versus Example 1, MET (D1246H) Mutant: relative to Example 1 = 1; for Fold potency decrease versus Example 2, MET (D1246H) Mutant: relative to Example 2 = 1
Sequence of MET (D1246H) Mutant (P08581 25-1408 isoform P08581-2 D1246H limits assumed): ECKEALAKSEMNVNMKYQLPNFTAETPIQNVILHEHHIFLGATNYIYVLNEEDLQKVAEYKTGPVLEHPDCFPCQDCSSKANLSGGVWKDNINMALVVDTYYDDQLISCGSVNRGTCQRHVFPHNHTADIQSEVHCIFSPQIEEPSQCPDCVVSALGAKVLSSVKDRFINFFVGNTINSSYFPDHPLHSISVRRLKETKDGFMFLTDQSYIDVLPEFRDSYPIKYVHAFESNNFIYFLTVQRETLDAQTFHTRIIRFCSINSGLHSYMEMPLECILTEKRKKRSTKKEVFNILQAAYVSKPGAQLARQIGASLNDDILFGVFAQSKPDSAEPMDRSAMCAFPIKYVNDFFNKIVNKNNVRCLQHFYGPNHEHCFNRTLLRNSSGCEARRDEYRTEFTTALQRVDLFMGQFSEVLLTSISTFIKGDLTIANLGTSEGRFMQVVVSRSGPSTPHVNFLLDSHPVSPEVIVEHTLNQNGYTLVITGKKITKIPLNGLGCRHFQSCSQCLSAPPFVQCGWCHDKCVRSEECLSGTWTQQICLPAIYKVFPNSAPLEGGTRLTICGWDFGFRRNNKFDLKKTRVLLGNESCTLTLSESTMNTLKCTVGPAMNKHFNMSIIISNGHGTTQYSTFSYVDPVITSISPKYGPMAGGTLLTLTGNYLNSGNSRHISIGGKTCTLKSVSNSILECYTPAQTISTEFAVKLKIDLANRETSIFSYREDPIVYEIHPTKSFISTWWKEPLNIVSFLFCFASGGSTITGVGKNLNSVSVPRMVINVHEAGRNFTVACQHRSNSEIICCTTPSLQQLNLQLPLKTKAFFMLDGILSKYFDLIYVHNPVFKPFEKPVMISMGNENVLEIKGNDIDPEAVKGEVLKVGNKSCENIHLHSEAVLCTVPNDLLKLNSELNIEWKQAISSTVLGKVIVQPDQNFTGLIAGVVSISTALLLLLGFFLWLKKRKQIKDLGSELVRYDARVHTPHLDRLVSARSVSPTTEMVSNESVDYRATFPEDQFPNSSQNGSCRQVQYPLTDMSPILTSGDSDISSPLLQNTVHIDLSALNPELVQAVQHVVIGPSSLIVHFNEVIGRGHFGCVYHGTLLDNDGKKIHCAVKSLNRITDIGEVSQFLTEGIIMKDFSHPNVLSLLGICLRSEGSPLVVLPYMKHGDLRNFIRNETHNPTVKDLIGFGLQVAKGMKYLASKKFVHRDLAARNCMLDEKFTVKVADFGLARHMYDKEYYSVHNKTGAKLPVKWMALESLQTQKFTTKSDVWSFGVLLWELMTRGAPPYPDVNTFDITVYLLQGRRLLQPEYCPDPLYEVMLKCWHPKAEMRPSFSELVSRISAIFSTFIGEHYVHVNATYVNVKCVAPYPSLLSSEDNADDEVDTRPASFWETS

MET (D1246N) Mutant = MET (D1246N) Mutant (Homo sapiens, UniProt P08581, D1228N); experiment: Mutant MET kinase biochemical assay, D1246N; settings: for Fold potency decrease versus Example 1, MET (D1246N) Mutant: relative to Example 1 = 1; for Fold potency decrease versus Example 2, MET (D1246N) Mutant: relative to Example 2 = 1
MET (Y1248C) Mutant = MET (Y1248C) Mutant (Homo sapiens, UniProt P08581, Y1230C); experiment: Mutant MET kinase biochemical assay, Y1248C; settings: for Fold potency decrease versus Example 1, MET (Y1248C) Mutant: relative to Example 1 = 1; for Fold potency decrease versus Example 2, MET (Y1248C) Mutant: relative to Example 2 = 1
MET (Y1248H) Mutant = MET (Y1248H) Mutant (Homo sapiens, UniProt P08581, Y1230H); experiment: Mutant MET kinase biochemical assay, Y1248H; settings: for Fold potency decrease versus Example 1, MET (Y1248H) Mutant: relative to Example 1 = 1; for Fold potency decrease versus Example 2, MET (Y1248H) Mutant: relative to Example 2 = 1
[2] = target: T2, Phospho-MET in EBC-1 cells (Homo sapiens, UniProt P08581); experiment: EBC-1 Phospho-MET ELISA; format: cell-based
T2 construct: host or cells: EBC-1
T2 sequence (P08581 25-1390): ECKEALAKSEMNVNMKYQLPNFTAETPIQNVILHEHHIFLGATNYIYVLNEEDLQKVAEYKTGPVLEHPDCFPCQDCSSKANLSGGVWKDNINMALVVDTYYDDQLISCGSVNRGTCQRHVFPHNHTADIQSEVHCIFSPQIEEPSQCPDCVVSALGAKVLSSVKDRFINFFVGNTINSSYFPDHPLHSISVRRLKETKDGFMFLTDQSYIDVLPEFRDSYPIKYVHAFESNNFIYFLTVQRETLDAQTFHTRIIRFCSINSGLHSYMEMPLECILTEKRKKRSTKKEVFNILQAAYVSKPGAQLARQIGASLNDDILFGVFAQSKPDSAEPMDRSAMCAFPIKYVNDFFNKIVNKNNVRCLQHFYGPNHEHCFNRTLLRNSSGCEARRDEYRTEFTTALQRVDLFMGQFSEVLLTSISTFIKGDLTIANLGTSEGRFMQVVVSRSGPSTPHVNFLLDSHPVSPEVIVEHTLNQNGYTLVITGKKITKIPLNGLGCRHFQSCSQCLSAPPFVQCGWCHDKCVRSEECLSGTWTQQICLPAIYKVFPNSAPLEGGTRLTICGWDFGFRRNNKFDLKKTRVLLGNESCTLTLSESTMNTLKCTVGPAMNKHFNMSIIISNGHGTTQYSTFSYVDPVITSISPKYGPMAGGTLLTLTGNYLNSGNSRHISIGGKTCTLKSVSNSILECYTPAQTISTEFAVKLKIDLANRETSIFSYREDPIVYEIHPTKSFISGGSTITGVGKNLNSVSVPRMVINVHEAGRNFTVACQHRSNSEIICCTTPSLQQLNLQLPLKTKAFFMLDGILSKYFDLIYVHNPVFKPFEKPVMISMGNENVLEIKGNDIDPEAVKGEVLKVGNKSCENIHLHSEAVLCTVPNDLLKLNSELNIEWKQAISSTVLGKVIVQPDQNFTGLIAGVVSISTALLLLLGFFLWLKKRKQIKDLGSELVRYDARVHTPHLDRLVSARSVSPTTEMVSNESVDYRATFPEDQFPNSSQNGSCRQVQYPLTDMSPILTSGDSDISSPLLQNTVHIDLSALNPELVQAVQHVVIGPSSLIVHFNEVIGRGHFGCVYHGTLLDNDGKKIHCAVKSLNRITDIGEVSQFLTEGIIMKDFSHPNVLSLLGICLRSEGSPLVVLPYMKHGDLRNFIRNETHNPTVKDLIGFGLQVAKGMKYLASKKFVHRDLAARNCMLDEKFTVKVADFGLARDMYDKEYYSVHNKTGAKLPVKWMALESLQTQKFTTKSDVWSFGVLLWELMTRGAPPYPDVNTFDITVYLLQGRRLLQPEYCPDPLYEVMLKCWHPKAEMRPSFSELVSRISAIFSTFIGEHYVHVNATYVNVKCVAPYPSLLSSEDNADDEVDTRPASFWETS
Description: (§1) EBC-1 cells (catalog #JCRB0820) were obtained from the Japan Health Science Research Resources Bank, Osaka, Japan. Briefly, cells were grown in DMEM supplemented with 10% characterized fetal bovine serum (Invitrogen, Carlsbad, Calif.) at 37° C., 5% CO2, 95% humidity. Cells were allowed to expand until reaching 70-95% confluency at which point they were subcultured or harvested for assay use.
Fifteen thousand cells in DMEM supplemented with 0.5% characterized fetal bovine serum (FBS; Invitrogen, Carlsbad, Calif.) were added per well in a 96-well black clear bottom plate (Corning, Corning, N.Y.). Cells were then incubated overnight at 37 degrees Celsius, 5% CO2, 95% humidity. A serial dilution of test compound was dispensed into another 96-well black clear bottom plate (Corning, Corning, N.Y.) containing DMEM supplemented with 0.5% FBS. Diluted compound was then added to plates containing cells and incubated for 6 hours at 37 degrees Celsius, 5% CO2, 95% humidity. Cells were stimulated with 40 ng/mL HGF (R&D Systems, Minneapolis, Minn.) for 10 minutes, and then lysed. Phospho-MET in cell lysates was detected using the DuoSet IC Human Phospho-HGF R/c-MET ELISA (R&D Systems, Minneapolis, Minn.). Data was analyzed using Prism software (Graphpad, San Diego, Calif.) to calculate IC50 values.

[3] = target: T3, Phospho-MET in MKN-45 cells (Homo sapiens, UniProt P08581); experiment: MKN-45 Phospho-MET ELISA; format: cell-based
T3 construct: host or cells: MKN-45
T3 sequence (P08581 25-1390): as above
Description: as §1, with “MKN-45” for “EBC-1”, “#JCRB0254)” for “#JCRB0820)”, “RPMI 1640 media” for “DMEM”
Twenty-five thousand cells in RPMI-1640 supplemented with 10% characterized fetal bovine serum (Invitrogen, Carlsbad, Calif.) were added per well in a 96-well black clear bottom plate (Corning, Corning, N.Y.). Cells were then incubated overnight at 37 degrees Celsius, 5% CO2, 95% humidity. Media was then aspirated and cells were washed with PBS. A serial dilution of test compound was dispensed into another 96-well black clear bottom plate (Corning, Corning, N.Y.) containing serum-free RPMI-1640. Compound was added to plates containing cells and incubated for 6 hours at 37 degrees Celsius, 5% CO2, 95% humidity. Cells were stimulated with 40 ng/mL HGF (R&D Systems, Minneapolis, Minn.) for 10 minutes, and then lysed. Phospho-MET in cell lysates was detected using the DuoSet IC Human Phospho-HGF R/c-MET ELISA (R&D Systems, Minneapolis, Minn.). Data was analyzed using Prism software (Graphpad, San Diego, Calif.) to calculate IC50 values.

A549 cells = experiment: A549 HGF-stimulated MET-dependent cell migration assay; format: cell-based
[4] = tested on: oncogenic Mutant MET kinase; experiment: various oncogenic Mutant MET kinase biochemical assays (summarised); settings: range over columns 3-6; for Fold less potent than Example 1 in the various oncogenic Mutant MET kinase biochemical assays: relative to Example 1; for Fold less potent than Example 2 in the various oncogenic Mutant MET kinase biochemical assays: relative to Example 2
[5] = relative to Example 1 = 1, listed as the '229 Compound
[6] = relative to Example 2 = 1, listed as the '229 Compound

Structure (SMILES) | Fold potency decrease versus Example 1, cMET WT [1] | Fold potency decrease versus Example 1, MET (D1246H) Mutant (MET (D1246H) Mutant) | Fold potency decrease versus Example 1, MET (D1246N) Mutant (MET (D1246N) Mutant) | Fold potency decrease versus Example 1, MET (Y1248C) Mutant (MET (Y1248C) Mutant) | Fold potency decrease versus Example 1, MET (Y1248H) Mutant (MET (Y1248H) Mutant) | Fold potency decrease versus Example 1, EBC-1 p-MET ([2]; relative to Example 1 = 1) | Fold potency decrease versus Example 1, MKN-45 p-MET ([3]; relative to Example 1 = 1) | Fold potency decrease versus Example 1, A549 MIG (A549 cells; relative to Example 1 = 1) | Fold potency decrease versus Example 2, cMET WT [1] | Fold potency decrease versus Example 2, MET (D1246H) Mutant (MET (D1246H) Mutant) | Fold potency decrease versus Example 2, MET (D1246N) Mutant (MET (D1246N) Mutant) | Fold potency decrease versus Example 2, MET (Y1248C) Mutant (MET (Y1248C) Mutant) | Fold potency decrease versus Example 2, MET (Y1248H) Mutant (MET (Y1248H) Mutant) | Fold potency decrease versus Example 2, EBC-1 p-MET ([2]; relative to Example 2 = 1) | Fold potency decrease versus Example 2, MKN-45 p-MET ([3]; relative to Example 2 = 1) | Fold potency decrease versus Example 2, A549 MIG (A549 cells; relative to Example 2 = 1) | Fold less potent than Example 1 in the various oncogenic Mutant MET kinase biochemical assays [4] | Fold less potent than Example 2 in the various oncogenic Mutant MET kinase biochemical assays [4] | also measured
CCOc1ccn(-c2ccc(F)cc2)c(=O)c1C(=O)Nc1cc(F)c(Oc2ccnc(NC(C)=O)c2)cc1F [Example 1, N-(4-((2-acetamidopyridin-4-yl)oxy)-2,5-difluorophenyl)-4-ethoxy-1-(4-fluorophenyl)-2-oxo-1,2-dihydropyridine-3-carboxamide] | 1 × | 1 × | 1 × | 1 × | 1 × | 1 × | 1 × | 1 × | – | – | – | – | – | – | – | – | – | – | –
CCOc1ccn(-c2ccc(F)cc2)c(=O)c1C(=O)Nc1cc(F)c(Oc2ccnc(N)c2)cc1F [Compound A, N-(4-((2-aminopyridin-4-yl)oxy)-2,5-difluorophenyl)-4-ethoxy-1-(4-fluorophenyl)-2-oxo-1,2-dihydropyridine-3-carboxamide] | 2.4 × | 6.7× | 4.4× | 6× | 2.6× | 11.7 × | 18.8 × | 3.4 × | 2.7 × | 4× | 5.7× | 5.7× | 18.3× | 21.5 × | 18.8 × | 8.9 × | 2.6-6.7 × | 4-18.3 × | –
CCOc1ccn(-c2ccc(F)cc2)c(=O)c1C(=O)Nc1ccc(Oc2ccnc(N)c2Cl)c(F)c1 [The ′229 Compound] | 3.9× | 8.5× | 2× | 3.8× | 2.3× | 22.5× | 73.8× | 2.4× | 4.4× | 5.1× | 2.5× | 3.6× | 15.7× | 41.5× | 73.7× | 6.3× | 2.3-8.5 × | 2.5-15.7 × | Fold potency decrease versus Example 1, cMET WT ([1]; listed as the '229 Compound): 3.9 ×; Fold potency decrease versus Example 2, cMET WT ([1]; listed as the '229 Compound): 4.4 ×; Fold potency decrease versus Example 1, EBC-1 p-MET [2, 5]: 22.5 ×; Fold potency decrease versus Example 2, EBC-1 p-MET [2, 6]: 41.5 ×; Fold potency decrease versus Example 1, MKN-45 p-MET [3, 5]: 73.8 ×; Fold potency decrease versus Example 2, MKN-45 p-MET [3, 6]: 73.7 ×; Fold potency decrease versus Example 1, A549 MIG (A549 cells; [5]): 2.4 ×; Fold potency decrease versus Example 2, A549 MIG (A549 cells; [6]): 6.3 ×
CCOc1ccn(-c2ccc(F)cc2)c(=O)c1C(=O)Nc1cc(F)c(Oc2ccnc(NC(=O)CC)c2)cc1F [Example 2, N-(2,5-difluoro-4-((2-propionamidopyridin-4-yl)oxy)phenyl)-4-ethoxy-1-(4-fluorophenyl)-2-oxo-1,2-dihydropyridine-3-carboxamide] | – | – | – | – | – | – | – | – | 1 × | 1 × | 1 × | 1 × | 1 × | 1 × | 1 × | 1 × | – | – | –
